PMC13021292, “Safety, tolerability and pharmacokinetics of DNDI‐6148, a novel agent for leishmaniasis: A randomized, controlled, single ascending dose study in healthy participants” (British Journal of Clinical Pharmacology, 2025)
Read-outs that look alike come from different tables or passages of the source.

Legend:
[1] = Urinary excretion and renal clearance, single ascending oral dose study; assay type: in vivo, human; settings: single oral 10–380 mg
Procedure: Urine was collected up to 72 h during the following intervals: pre‐dose, D1T0h – D1T12h, D1T12h – D2T24h, D2T24h – D3T48h and D3T48h – D4T72h. Urine was collected in containers containing 20 g citric acid monohydrate and stored at 4 °C for a maximum of 43 h. All urine passed during each interval period was combined and at the end of the interval, the pool of acidified urine was vigorously mixed; two aliquots were prepared, each with 1 mL of acidified urine and 1 mL of aqueous solution of 50 g/L bovine serum albumin (BSA) and 9 g/L NaCl.
Tubes of acidified urine/BSA samples were capped immediately for each time point and stored at −80 °C. Samples of both acidified plasma and acidified urine/BSA were shipped for bioanalysis on dry ice by a specialized carrier. Temperatures were monitored using a data logger during transport.

[2] = Safety and tolerability (adverse events), single ascending oral dose study; assay type: in vivo, human
Procedure: The primary endpoint was assessment of the safety and tolerability of DNDI‐6148 by evaluation of the following parameters: adverse events (AEs), physical examination (including body weight), clinical neurological examination, vital signs, 12‐lead ECG, clinical laboratory (including serum chemistry, haematology, hormonology and urinalysis) and psychological and cognitive examinations.
(§1) Safety was assessed by monitoring AEs throughout the study. Other safety monitoring included 12‐lead ECG recordings, measurement of vital signs, physical and neurological examinations, haematology, blood biochemistry and urinalysis and, for the last four participants of the 160 mg cohort and onwards, CRP and TNFα.
To minimize risk, participants were dosed sequentially, using sentinels in each cohort (one receiving DNDI‐6148, one placebo), as per European Medicines Agency guidelines.[12] Stopping criteria used in that study are described in Supplementary Information, Text S2. If the previous dose was well tolerated, with no safety concerns, the Safety Review Committee decided on dose escalation after reviewing blinded safety and PK data from all available cohorts.

[3] = Cardiac safety: ECG QTcF, QTcG, heart rate; assay type: in vivo, human
Procedure: as §1
Triplicate ECGs extracted from 24-hour Holter recordings at predefined time points aligned with the pharmacokinetic (PK) sampling were used for additional cardiac safety analyses. […] For the group correction, α was estimated as the slope of the linear relationship between ln(QT) and ln(RR), based on drug-free (placebo and pre-dose) data (Figure S1).

[4] = Plasma CRP and TNFα pre- and post-dose (exploratory inflammation markers); assay type: in vivo, human; design: CRP plasma concentration, Mean / TNFα plasma concentration, Mean: unit not given here; settings: for CRP change from pre-dose, Mean / CRP change from pre-dose, Median / CRP plasma concentration, Mean / CRP plasma concentration, Median / TNFα change from pre-dose, Mean / TNFα plasma concentration, Mean / TNFα plasma concentration, Median / TNFα change from pre-dose, Median: 6 h post-dose (D1-T6H)
Source text: Recruitment was temporarily interrupted on 16 March 2020 due to confinement measures related to the COVID‐19 outbreak in France. The study resumed on 17 August 2020, allowing for the completion of recruitment for cohorts 2, 3 and 4. Additionally, four participants were included in cohort 5 before suspension of the investigational product (IP) administration on 30 January 2021 as a precaution to assess emerging unexpected data in a non‐clinical Fertility and Early Embryonic Development study. The protocol was further amended to include evaluation of plasma concentrations of C‐reactive protein (CRP) and of tumour necrosis factor alpha (TNFα) pre and post‐dose (6 h) as exploratory markers of possible inflammation. Subsequent cohorts were completed up to the 380 mg dose level (cohort 8) without further interruption of the study.
Exploratory endpoints included ECG parameters compared to baseline and placebo; the exploratory identification of DNDI‐6148 metabolites; and, for the last four participants of the 160 mg cohort and the 220 mg, 300 mg and 380 mg cohorts, the exploratory evaluation of plasma concentrations of CRP and TNFα pre‐ and post‐dose.
as §1

[5] = human, in vivo, po, 220 mg
Procedure: (§2) This was a FIH, phase I, double‐blind, parallel, single ascending dose (SAD) study of DNDI‐6148 arginine monohydrate, administered as an oral suspension to healthy male participants. Cohorts 1–8 each included eight participants and were administered 10, 20, 40, 80, 160, 220, 300 or 380 mg (free form) of DNDI‐6148 (in six participants) or placebo (two participants).
(§3) At the clinical site, a suspension was prepared extemporaneously by the pharmacist within 24 h prior to administration to participants (the timepoint for which stability data of the suspension were available). The IP powder was suspended in 30 mL ORA‐Sweet® (Paddock Laboratories, LLC, Minneapolis, USA) for taste and colour masking. Participants were administered between 4 and 25 mL of the suspensions, followed by the ingestion of 250 mL tap water. Opaque precision syringes were used to administer the solutions to minimize the risk of unblinding. To preclude any dietary effects on the PK of DNDI‐6148, participants fasted for 9 h before they received the IP or placebo. Treatments were administered under the supervision of the investigator at approximately 8 a.m. on Day 1.
(§4) Blood samples (6 mL per time point) for pharmacokinetic analyses were collected on Day 1 pre‐dose and at the following post‐dose time points: 0.5,1, 1.5 (cohorts 1–4 only), 2, 2.5, 3, 4, 5 (cohorts 5–8 only), 6, 9, 12, 24, 48 and 72 h. […] Within 30 min of blood collection, blood samples were centrifuged at 1500g for 10 min at 4 °C and 500 μL of plasma were transferred into pre‐labelled polypropylene tubes prefilled with phosphoric acid 2% (1:1, v:v). Tubes were capped immediately for each time point, and the plasma was frozen in an upright position at −80 °C for storage.
(§5) Concentrations of DNDI‐6148 were determined in acidified plasma and acidified urine/BSA mixture using a validated internally standardized liquid chromatography–tandem mass spectrometry (LC–MS/MS) assay with deuterated d4‐DNDI‐6148 as an internal standard. The lower limit of quantitation (LOQ) for DNDI‐6148 was 1 ng/mL in plasma and 10 ng/mL in urine.
(§6) Values that were below the LOQ before the first concentration equal or above LOQ were set to zero. Other values below the LOQ were not used to calculate the PK parameters. The area under the plasma concentration‐time curve from time zero (pre‐dose) to the time of last quantifiable concentration (AUC0‐last) was calculated using the linear‐log trapezoidal rule. Elimination half‐life (t1/2) was calculated by the equation ln2/λz, after visual inspection of the plasma concentration‐time profiles (considering a minimum of 3 data points, including the last measurable data point and excluding Cmax).
(§7) PK parameters were derived from plasma concentration vs. time data using non‐compartmental analysis in Phoenix WinNonlin® 8.1 (Certara Inc., Princeton, NJ, USA). Plasma concentration vs. time data and PK parameters were listed and summarized by dose level, using descriptive statistics. Mean concentrations were calculated only if at least ⅔ of the individual concentrations were above the lower LOQ (LLOQ). […] Planned sampling times were used to summarize plasma concentration data; actual sampling times were used in the derivation of PK parameters.

L. donovani [6] = settings: cited from earlier work
L. infantum [7] = settings: cited from earlier work
L. infantum [8] = settings: 25 mg/kg BID for five or ten days; cited from earlier work
L. donovani [9] = settings: 25 mg/kg BID for five days, oral; cited from earlier work
L. infantum [10] = settings: 25 mg/kg BID for five days, oral; cited from earlier work
[11] = cited from earlier work
[12] = at 1 μM; cited from earlier work
[13] = pH 7.4; cited from earlier work
[14] = design: method as in unpublished data; settings: non‐clinical studies ref unpublished data; cited from earlier work
[15] = cited from earlier work; remark: listed apart in the source
[16] = Plasma pharmacokinetics, first-in-human single ascending oral dose study; settings: 10 mg single oral dose
Procedure: as §2, §3, §4, §5, §6, §7

Cc1c(C(=O)Nc2ccc3c(c2)B(O)OC3)nnn1-c1ccccn1 [DNDI‐6148]
fraction of the dose excreted by the kidneys as unchanged drug [1]: below 0.2% | TEAE Musculoskeletal and connective tissue disorders, participants n (%) [events] ([2]; 10 mg (N = 6)): 0 | TEAE Musculoskeletal and connective tissue disorders, participants n (%) [events] ([2]; 80 mg (N = 6)): 0 | TEAE Musculoskeletal and connective tissue disorders, participants n (%) [events] ([2]; 160 mg (N = 6)): 0 | TEAE Musculoskeletal and connective tissue disorders, participants n (%) [events] ([2]; 220 mg (N = 6)): 0 | TEAE Musculoskeletal and connective tissue disorders, participants n (%) [events] ([2]; 380 mg (N = 6)): 0 | TEAEs (events) ([2]; in vivo): 10 | participants with TEAEs ([2]; in vivo): 8 | participants with TEAEs, percentage ([2]; in vivo): 14.3% | maximal tolerated dose ([2]; single doses 10–380 mg): not reached | largest mean ΔΔQTcG ([3]; 160 mg, 12 h post-dose): 7.24 ms | mean ΔΔQTcG ([3]; 380 mg, 9 h post-dose): 1.83 ms | QTcG changes from baseline ([3]; all doses): ≤ 30 ms | QTcG values ([3]; all doses): ≤ 450 ms | QTcF value >500 msec or change from baseline QTcF >60 msec ([3]; any participant): No QTcF value >500 msec or change from baseline QTcF >60 msec was recorded | upper limit of the 90% CI of ΔΔQTcF ([3]; any single dose, concentration‐response modelling): ≤ 10 ms | maximum effect on ΔΔQTcF, estimated ([3]; dose of 380 mg, concentration‐response modelling): 1.65 (90% CI: −0.635, 3.94) msec | CRP change from pre-dose, Mean ([4]; 160 mg, n 3): -0.03 | CRP change from pre-dose, Median ([4]; 160 mg, n 3): 0.00 | CRP plasma concentration, Mean ([4]; 160 mg, n 3): 0.80 | CRP plasma concentration, Median ([4]; 160 mg, n 3): 0.60 | TNFα change from pre-dose, Mean ([4]; 160 mg, n 3): 0.15 | TNFα plasma concentration, Mean ([4]; 160 mg, n 3): 2.55 | TNFα plasma concentration, Median ([4]; 160 mg, n 3): 2.58 | CRP change from pre-dose, Mean ([4]; 220 mg, n 6): -0.03 | CRP change from pre-dose, Median ([4]; 220 mg, n 6): 0.00 | CRP plasma concentration, Mean ([4]; 220 mg, n 6): 0.72 | CRP plasma concentration, Median ([4]; 220 mg, n 6): 0.60 | TNFα change from pre-dose, Mean ([4]; 220 mg, n 6): -19.68 | TNFα change from pre-dose, Median ([4]; 220 mg, n 6): -15.26 | TNFα plasma concentration, Mean ([4]; 220 mg, n 6): 1.77 | TNFα plasma concentration, Median ([4]; 220 mg, n 6): 1.74 | CRP change from pre-dose, Mean ([4]; 300 mg, n 6): -0.13 | CRP change from pre-dose, Median ([4]; 300 mg, n 6): -0.15 | CRP plasma concentration, Mean ([4]; 300 mg, n 6): 2.47 | CRP plasma concentration, Median ([4]; 300 mg, n 6): 1.15 | TNFα change from pre-dose, Mean ([4]; 300 mg, n 6): -0.37 | TNFα change from pre-dose, Median ([4]; 300 mg, n 6): 0.18 | TNFα plasma concentration, Mean ([4]; 300 mg, n 6): 2.67 | TNFα plasma concentration, Median ([4]; 300 mg, n 6): 2.62 | TNFα change from pre-dose, Mean ([4]; 380 mg, n 4): 0.33 | TNFα change from pre-dose, Median ([4]; 380 mg, n 4): 0.32 | TNFα plasma concentration, Mean ([4]; 380 mg, n 4): 2.82 | TNFα plasma concentration, Median ([4]; 380 mg, n 4): 2.75 | CRP change from pre-dose, Mean ([4]; 380 mg, n 6): -0.02 | CRP change from pre-dose, Median ([4]; 380 mg, n 6): 0.00 | CRP plasma concentration, Mean ([4]; 380 mg, n 6): 0.87 | CRP plasma concentration, Median ([4]; 380 mg, n 6): 0.60 | plasma CRP and TNFα concentrations post‐dose compared with pre‐dose ([4]; last four participants of 160 mg cohort and 220–380 mg cohorts): not significantly increased | CL/F [5]: 2.55 L/h | in vitro activity against L. donovani (L. donovani [6]): in the micromolar range | in vitro activity against L. infantum (L. infantum [7]): in the micromolar range | efficacy by oral route in L. infantum hamster model of VL (L. infantum [8]): demonstrated efficacy | efficacy in L. donovani mouse model of VL (L. donovani [9]): demonstrated efficacy | efficacy in L. infantum mouse model of VL (L. infantum [10]): demonstrated efficacy | unbound fraction in plasma ([11]; humans): 6.6% | plasma protein binding (bound) ([11]; species not stated): over 93% | CLint in hepatocytes [12]: 0.5 μL/min/10^6 cells | logD [13]: 1.92 | blood–brain barrier crossing [14]: cross the blood–brain barrier | CLint in human liver microsomes [15]: below 0.3 μL/min/mg | CL/F ([16]; GM): 2.89 L/h | Cmax ([16]; GM): 155 ng/mL | Vd/F ([16]; GM): 52.89 L | t1/2 ([16]; GM): 12.7 h | CL/F ([16]; Mean): 2.97 L/h | Cmax ([16]; Mean): 156 ng/mL | Vd/F ([16]; Mean): 53.52 L
